Consider two molecules from patent publication US11572508B2, “Non-linear surfactant” (Powdermet, Inc., priority 2018, dated 2023).

Data set [1] can be described thus: pH-controlled solubility and rock-face adsorption of isoelectric surfactant. The class given is physicochemical. The source says:
An example of an isoelectric non-linear molecular surfactant is a modified rigid ring structure with a zwitterionic to control solubility and surface activity. Molecular surfactant is defined as a group of atoms bonded together, representing the smallest fundamental unit of a chemical compound. In one non-limiting descriptive example, cholic acid is bound to a zwitterionic bi-functional compound, such as threonine. One (1) equivalent of cholic acid is suspended in an aprotic polar solvent, tetrahydrofuran with the addition of a base catalysis, pyridine. The primed rigid ring moiety structure is titrated with one (1) to three (3) equivalents of a zwitterionic coupling agent, and/or silane threonine, in an aprotic polar solvent. Purified product has applications in surface modification chemistry across materials and production markets. One non-limiting identified application is the oil and gas industry's unconventional resource collections through improving production recovery by controlling the rock wettability and reducing the translation motion energy through rock porosity and fractures. The zwitterionic nature of the isoelectric non-linear molecular surfactant enables the production recovery increase by allowing the production team to control when the surfactant becomes insoluble and favors surface adsorption to the formation's porous and fracture surface. […]

Data set [2] is described as follows: emulsion suspension of liquid epoxy resin: particle size dispersion, suspension stability, pumping through sand packs. Format: physicochemical. The note with it: 71 mM surfactant. From the text: The suspension was maintained for up to 1 month unchanged.

The structures appear in SMILES notation.

Turning to `CC(O)C(NC(=O)CCC(C)C1CCC2C3C(O)CC4CC(O)CCC4(C)C3CC(O)C12C)C(=O)O` (stereo not shown), the “pH at which surfactant is triggered to adsorb to the rock face” value in data set [1] (formation rock face) stood at 5.6. Besides, in data set [1] (pumping solutions), the “pH at which surfactant is soluble in pumping solutions” value was “below 5.5”.

With `C[C@H](CCC(=O)O)[C@H]1CC[C@H]2[C@@H]3[C@H](O)C[C@@H]4C[C@H](O)CC[C@]4(C)[C@H]3C[C@H](O)[C@]12C` [3α,7α,12α-trihydroxy-5β-cholan-24-oic acid], the “time suspension was maintained unchanged” value in data set [2] (23 wt. % solids epoxy resin suspension) was “up to 1 month”. Also, the “particle size dispersion D50 of nanoemulsion” value in data set [2] (23 wt. % solids suspension of bisphenol A/epichlorohydrin-derived liquid epoxy resin) stood at 450 nm.
